Data on 1 compound can be found in patent publication US11607458B2 (Georgia State University Research Foundation, Inc, priority 2017, dated 2023).

A short description of test [1]: Release of the parent drug (Dox / dansyl amine) from prodrugs treated with alkynes, monitored by HPLC. The settings on record: alkyne 2b; r.t; PBS 10% DMSO. Type of test: physicochemical. As to the method:
Standard curve of Dox concentration measurement. To four HPLC vials containing 0.9 mL PBS (size: 1.5 mL) were added 25, 15, 20, 10 μL Dox stock solution (1 mM) respectively. Then defined amounts DMSO (975, 985, 980, and 990 μL) were added to each vial to afford final concentration of four vials were 25, 15, 20, 10 μM in PBS (10% DMSO), respectively. The samples were analyzed with HPLC method A. Dox retention time: 4.0 min.
Standard curve for DA concentration measurement. To four HPLC vials containing 0.9 mL PBS (size: 1.5 mL) were added 25, 15, 20, 10 μL Dox stock solution (1 mM) respectively. Then defined amounts DMSO (975, 985, 980, and 990 μL) were added to each vial to afford final concentration of four vials were 25, 15, 20, 10 μM in PBS (10% DMSO), respectively. The samples were analyzed with HPLC method B. DA retention time: 5.8 min.
(§1) General procedures HPLC studies of reaction kinetics. To three 20-ml vials with 9 mL PBS were added a solution of tetrazine prodrug (500 μL, 500 μM). 350 μL, 300 μL and 250 μL DMSO were added to vial respectively, and then 150 μL, 200 μL and 250 μL of the alkyne solution (50 mM in DMSO) were added to the vials to afford final concentrations of alkyne 0.75 mM, 1 mM and 1.25 mM in PBS (10% DMSO, 25 μM prodrug) respectively. The reaction was stirred at r.t or 37° C. respectively. Every 30 min about 500 μL reaction mixtures were taken out and 20 μL of them were injected into the HPLC by the autosampler; the rest of them were poured back to the reaction mixture. (Note: In the cases of prodrugs 1d or 1b reacting with alkyne 2d at 37° C., the final concentrations of 2d in the kinetic studies were 250 μM, 300 μM and 350 μM).
Results. The results from the reaction kinetics studies of the tetrazine-cyclooctyne system are summarized below in Table 4. Prodrugs 1d or 1b (25 μM) were treated with alkynes 2d, 2c ,2a, or 2b at different concentrations at room temperature (r.t.) or 37° C., respectively. The prodrug consumption and release of the parent drug were monitored by HPLC (Table 4).

Test [2] can be described thus: HPLC studies of reaction kinetics of tetrazine prodrugs with cyclooctyne alkynes (Kobs, second-order rate constant k2). Conditions: for Kobs: prodrug 25 μM. Type of test: physicochemical. As to the method: Stock solution preparation. Each of the tetrazine prodrugs (compounds 1b, 1c, and 1d) was dissolved in DMSO to afford a 500-μM stock solution. Each of the alkynes (compounds 2a, 2b, 2c, and 2d) was dissolved in DMSO to afford a 50-mM stock solution. Doxorubicin (Dox) and dansylamino compound (DA) 1.1b were each dissolved in DMSO to afford 1-mM stock solutions.
HPLC method A.: mobile phase A (10 mM NaH2PO4 in water, pH=5.0) and mobile phase B (ACN), flow rate: 1 mL/min, running time: 30 min, the gradient elution method: 25% B from 0 to 6 min, 25% to 50% B from 6 to 8 min, 50% B from 8 to 15 min, 50% to 99% B from 15 to 20 min, 99% B from 20 to 25 min, 99% to 25% B from 25 to 30 min. Detection wavelength: 256 nm. Column: Waters C18 3.5 μM, 4.6×100 mm. Injection volume: 20 μL.
HPLC method B: mobile phase A (10 mM NaH2PO4 in water, pH=5.0) and mobile phase B (ACN), flow rate: 1 mL/min, running time: 30 min, the gradient elution method: 30% B from 0 to 6 min, 30% to 50% B from 6 to 8 min, 50% B from 8 to 15 min, 50% to 99% B from 15 to 20 min, 99% B from 20 to 25 min. 99% to 30% B from 25 to 30 min. Detection wavelength 1: 256, detection wavelength 2: 337 nm. Column: Waters C18 3.5 μM, 4.6×100 mm. Injection volume: 20 μL.
as §1
Determination of second-order rate constants. The reaction rate constant, kobs, was calculated for each concentration of the alkyne by fitting the prodrug areas versus time using eq. 1: Y=A exp(−kobst) eq. 1 where Y is the prodrug area, and t is time. The pseudo-first-order rate constant, kobs, was then plotted against the concentration of alkyne to yield the second-order rate constant using eq 2: kobs=k2[Alkyne] eq. 2 where k2 is the second-order rate constant.

Turning to `COc1cccc2c1C(=O)c1c(O)c3c(c(O)c1C2=O)CC(O)(C(=O)CO)CC3OC1CC(NC(=O)c2nnc(-c3ccc(OCc4cn(CCCCCCCCC[P+](c5ccccc5)(c5ccccc5)c5ccccc5)nn4)cc3)nn2)C(O)C(C)O1` (stereo not drawn) [1c], in test [1], the “Time of the Dox peak (in brackets in the Dox Peak % cell)” value worked out at 18 h. The Kobs in test [2] (37° C., alkyne 2b 0.75 mM, Expt. 1) amounted to 0.711 h⁻¹; in test [2] (37° C., alkyne 2b 0.75 mM, Expt. 2) it was 0.701 h⁻¹; in test [2] (37° C., alkyne 2b 0.75 mM, Expt. 3), 0.714 h⁻¹; in test [2] (37° C., alkyne 2b 1.00 mM, Expt. 1) it was 0.921 h⁻¹; in test [2] (37° C., alkyne 2b 1.00 mM, Expt. 2) it was 0.902 h⁻¹; in test [2] (37° C., alkyne 2b 1.00 mM, Expt. 3), 0.871 h⁻¹. The Kobs turned out to be 1.21 h⁻¹ in test [2] (37° C., alkyne 2b 1.25 mM, Expt. 1); 1.15 h⁻¹ in test [2] (37° C., alkyne 2b 1.25 mM, Expt. 2); 1.09 h⁻¹ in test [2] (37° C., alkyne 2b 1.25 mM, Expt. 3); 0.296 h⁻¹ in test [2] (r.t, alkyne 2b 0.75 mM, Expt. 1); 0.305 h⁻¹ in test [2] (r.t, alkyne 2b 0.75 mM, Expt. 2); 0.291 h⁻¹ in test [2] (r.t, alkyne 2b 0.75 mM, Expt. 3). Besides, the Kobs in test [2] (r.t, alkyne 2b 1.00 mM, Expt. 1) came out at 0.331 h⁻¹; in test [2] (r.t, alkyne 2b 1.00 mM, Expt. 2), 0.356 h⁻¹; in test [2] (r.t, alkyne 2b 1.00 mM, Expt. 3) it was 0.359 h⁻¹; in test [2] (r.t, alkyne 2b 1.25 mM, Expt. 1) it was 0.445 h⁻¹; in test [2] (r.t, alkyne 2b 1.25 mM, Expt. 2), 0.465 h⁻¹; in test [2] (r.t, alkyne 2b 1.25 mM, Expt. 3), 0.474 h⁻¹. Moreover, in test [2] (alkyne 2b, 37° C., PBS containing 10% DMSO, n = 3), the “k2 at 37° C. (second order rate constant)” value amounted to 0.25 ± 0.05 M⁻¹ s⁻¹. Also, in test [2] (alkyne 2b, r.t, PBS containing 10% DMSO, n = 3), the “k2 at r.t (second order rate constant)” value was 0.091 ± 0.013 M⁻¹ s⁻¹.
